Assay results as given in patent US7829567B2, “Imino-indeno[1,2-c] quinoline derivatives, their preparation processes, and pharmaceutical compositions comprising the same” (Kaohsiung Medical University, priority 2007, dated 2010).
Where two headings read alike, the source gives them in different places.

Key:
Assay type in all cases: cell-based
[1] = system: human stomach adenocarcinoma (AGS); experiment: In vitro anticancer assay (MTT), AGS; settings: AGS cells, 48 hrs, mean ± spread, read-out: Anti-proliferative evaluation IC50, AGS
Experimental: (§1) The resultant tetrazolium salt was then dissolved by the addition of dimethyl sulfoxide. Color was measured spectrophotometrically in a microtiter plate reader at 570 nm and used as a relative measure of viable cell number. The number of viable cells after treatment was compared to solvent and untreated control cells and used to determine the percent of control growth as (Abtreated/Abcontrol)×100, where Ab represents the mean absorbance (n=3). […] D. Heo et al. […] (+)-camptothecin (CPT) and doxorubicin hydrochloride (Dox) were used for comparison with the compounds according to this invention.

[2] = system: oral squamous cell carcinoma (SAS); experiment: In vitro anticancer assay (MTT), SAS; settings: SAS cells, 48 hrs, mean ± spread, read-out: Anti-proliferative evaluation IC50, SAS
Experimental: as §1

[3] = system: human renal clear cell carcinoma; experiment: In vitro anticancer assay (MTT), RCC 768-O; settings: RCC 768-O cells, 48 hrs, mean ± spread, read-out: Anti-proliferative evaluation IC50, RCC 768-O
Experimental: as §1

[4] = system: esophageal carcinoma (CE81T); experiment: In vitro anticancer assay (MTT), CE81T; settings: CE81T cells, 48 hrs, mean ± spread, read-out: Anti-proliferative evaluation IC50, CE81T
Experimental: as §1

[5] = system: human cervical epithelioid carcinoma (HeLa); experiment: In vitro anticancer assay (MTT), HeLa; settings: HeLa cells, 48 hrs, mean ± spread, read-out: Anti-proliferative evaluation IC50, HeLa
Experimental: as §1

[6] = system: hepatocellular carcinoma (SKHep1); experiment: In vitro anticancer assay (MTT), SKHep1; settings: 48 hrs, mean ± spread, read-out: Anti-proliferative evaluation IC50, SKHep1
Experimental: as §1

[7] = Homo sapiens, SK-HEP1, SKHep1 cells

Compound | IC50 [1] | IC50 [2] | IC50 [3] | IC50 [4] | IC50 [5] | IC50 ([6]; SKHep1 cells) | IC50 ([1]; Homo sapiens) | IC50 ([3]; Homo sapiens) | IC50 ([5]; Homo sapiens) | IC50 [6, 7]
COc1ccc2c(c1)C(=NOCc1ccccc1)c1c-2c(N2CCNCC2)nc2ccccc12 [Compound 6x] | 6.1 ± 1.4 µM | 7.6 ± 0.6 µM | 7 ± 0.4 µM | 3.4 ± 2.3 µM | 6.1 ± 0.3 µM | 4.2 ± 1.8 µM |  |  |  | 
CNCCC(=O)N1CCN(c2nc3ccccc3c3c2-c2ccc(OC)cc2C3=O)CC1 [Compound 5xx] | 8.1 ± 1.1 µM | 6.9 ± 0.7 µM | 6 ± 1.4 µM | 3.8 ± 0.6 µM | 1.9 ± 0.8 µM | 9.1 ± 4.8 µM |  |  |  | 
COc1ccc2c(c1)C(=O)c1c-2c(N2CCCNCC2)nc2ccccc12 [Compound 5z] | 7.1 ± 1.1 µM | 10.2 ± 2.5 µM | 10.2 ± 6.5 µM | 4.9 ± 1.3 µM | 3 ± 1.3 µM | 6.2 ± 0.7 µM |  |  |  | 
COc1ccc2c(c1)C(=NOCC1CO1)c1c-2c(N2CCN(CC3CO3)CC2)nc2ccccc12 (stereo not shown) [Compound 6y] | 8.8 ± 4.1 µM | 6.2 ± 0.9 µM | 8.8 ± 2.2 µM | 2 ± 1.2 µM | 0.5 ± 0.2 µM | 1 ± 0.5 µM |  |  |  | 
O=C1c2ccccc2-c2c(NCCNCCO)nc3ccccc3c21 [Compound 5c, 6-[2-(2-Hydroxyethylamino)ethylamino]-11H-indeno[1,2-c]quinolin-11-one] |  | 7.3 ± 0.6 µM |  | > 30 µM |  |  | 7.9 ± 1.7 µM | 8.3 ± 0.6 µM | 1 ± 0.3 µM | 4.3 ± 1.5 µM
COc1ccc2c(c1)C(=O)c1c-2c(N2CCN(C(=O)CN3CCOCC3)CC2)nc2ccccc12 [Compound 5uu] | 21.4 ± 0.2 µM | > 30 µM | > 30 µM | > 30 µM | 18 ± 8.1 µM | 19.9 ± 10 µM |  |  |  | 
COc1ccc2c(c1)C(=O)c1c-2c(N2CCN(C(=O)CCO)CC2)nc2ccccc12 [Compound 5ww] | 9.5 ± 0.3 µM | > 30 µM | 18.5 ± 2.1 µM | > 30 µM | 10.6 ± 1.6 µM | 21.9 ± 6.4 µM |  |  |  | 
COc1ccc2c(c1)C(=O)c1c-2c(N2CCN(C(=O)CNCCN3CCNCC3)CC2)nc2ccccc12 [Compound 5vv] | 7.3 ± 0.1 µM | 8.9 ± 0.1 µM | 5.6 ± 0.9 µM | 8.4 ± 2 µM | 5.4 ± 2 µM | 6.4 ± 0.6 µM |  |  |  | 
COc1ccc2c(c1)C(=O)c1c-2c(NCCCN(C)C)nc2ccccc12 [Compound 5i, 6-[3-(Dimethylamino)propylamino]-9-methoxy-11H-indeno[1,2-c]quinolin-11-one] |  | 5.5 ± 0.5 µM |  | 7.1 ± 0.3 µM |  |  | 14.3 ± 0.5 µM | > 30 µM | 2 ± 0.4 µM | 11.5 ± 5.4 µM
COc1ccc2c(c1)C(=O)c1c-2c(N2CCC(N)C2)nc2ccccc12 (stereo not shown) [Compound 5v] | > 30 µM | > 30 µM | > 30 µM | > 30 µM | > 30 µM | 26.9 ± 19.5 µM |  |  |  | 
COc1ccc2c(c1)C(=O)c1c-2c(N2CCN(CC3CO3)CC2)nc2ccccc12 (stereo not shown) [Compound 5kkk, 9-methoxy-6-[4-(oxiran-2-ylmethyl)piperazin-1-yl]-11H-indeno[1,2-c]quinolin-11-one] |  | > 30 µM |  | 0.6 µM |  |  | 21.4 ± 10.1 µM | 19.1 ± 3.1 µM | 10.7 ± 1.2 µM | > 30 µM
COc1ccc2c(c1)C(=O)c1c-2c(N2CCN(C(=O)CN(C)C)CC2)nc2ccccc12 [Compound 5ll] | 8.7 ± 1.2 µM | > 30 µM | 14.1 ± 3.4 µM | > 30 µM | 11.8 ± 2.8 µM | 19.2 ± 5.4 µM |  |  |  | 
COc1ccc2c(c1)C(=O)c1c-2c(N2CCN(C(=O)CCNCCNCCO)CC2)nc2ccccc12 [Compound 5eee] | 16 ± 0.9 µM | > 30 µM | 15 ± 3.5 µM | > 30 µM | 10.6 ± 1.2 µM | 11.2 ± 0.9 µM |  |  |  | 
COc1ccc2c(c1)C(=O)c1c-2c(N2CCN(C(=O)CCNCCO)CC2)nc2ccccc12 [Compound 5aaa] | 3.7 ± 0.5 µM | 9.1 ± 1.6 µM | 2 ± 1.4 µM | 7.1 ± 0.9 µM | 3.1 ± 1.2 µM | 4.5 ± 1.1 µM |  |  |  | 
COc1ccc2c(c1)C(=O)c1c-2c(N2CCN(C(=O)CCNCCN)CC2)nc2ccccc12 [Compound 5zz] | 9 ± 2 µM | > 30 µM | > 30 µM | > 30 µM | 11.4 ± 0.4 µM | 19 ± 3.2 µM |  |  |  | 
COc1ccc2c(c1)C(=O)c1c-2c(N2CCN(C(=O)CCN3CCOCC3)CC2)nc2ccccc12 [Compound 5hhh] | 12 ± 1.3 µM | > 30 µM | > 30 µM | > 30 µM | 14.3 ± 4.4 µM | 15 ± 5.9 µM |  |  |  | 
CC[C@@]1(O)C(=O)OCc2c1cc1n(c2=O)Cc2cc3ccccc3nc2-1 [CPT, (+)-camptothecin, reference compound] |  | 6 ± 2.7 µM |  | 2.8 ± 1.5 µM |  |  | > 30 µM | 2.8 ± 0.7 µM | 0.3 ± 0.1 µM | 0.2 ± 0.1 µM
CNCC(O)CN1CCN(c2nc3ccccc3c3c2-c2ccc(OC)cc2C3=O)CC1 (stereo not shown) [Compound 5lll, 6-{4-[2-Hydroxy-3-(methylamino)propyl]piperazin-1-yl}-9-methoxy-11H-indeno[1,2-c]quinolin-11-one] |  | 7.4 ± 0.7 µM |  | 0.9 ± 0.3 µM |  |  | 9.6 ± 3.8 µM | 6.4 ± 0.2 µM | 4.6 ± 1 µM | 3.4 ± 1.2 µM
COc1ccc2c(c1)C(=O)c1c-2c(N2CCC(N)CC2)nc2ccccc12 [Compound 5w] | 7.4 ± 0.6 µM | 8.4 ± 2.6 µM | 5.3 ± 1 µM | 1.4 ± 0.7 µM | 1.1 ± 0.3 µM | 2.6 ± 0.9 µM |  |  |  | 

Continued, values first:

IC50 [1] | IC50 [2] | IC50 [3] | IC50 [4] | IC50 [5] | IC50 ([6]; SKHep1 cells) | IC50 ([1]; Homo sapiens) | IC50 ([3]; Homo sapiens) | IC50 ([5]; Homo sapiens) | IC50 [6, 7] | Compound
7.6 ± 3.4 µM | 7.9 ± 0.3 µM | 7 ± 0.7 µM | 3.4 ± 0.3 µM | 4.9 ± 0.6 µM | 5.9 ± 1.1 µM |  |  |  |  | CON=C1c2cc(F)ccc2-c2c(N3CCNCC3)nc3ccccc3c21 [Compound 6l]
 | 6.3 ± 0.9 µM |  | 6.5 ± 0.6 µM |  |  | 5.9 ± 1.2 µM | 4.4 ± 1.4 µM | 0.9 ± 0.4 µM | 3 ± 2.2 µM | COc1ccc2c(c1)C(=NOCCCN)c1c-2c(N2CCNCC2)nc2ccccc12 [Compound 6t, 9-Methoxy-6-(piperazin-1-yl)-11H-indeno[1,2-c]quinolin-11-one O-3-aminopropyl oxime]
6.8 ± 1.4 µM | 9.5 ± 2.1 µM | > 30 µM | > 30 µM | 8.4 ± 1.2 µM | 8.7 ± 2.1 µM |  |  |  |  | COc1ccc2c(c1)C(=NO)c1c-2c(OC)nc2ccccc12 [Compound 6e]
 | 7.7 ± 1 µM |  | 0.4 µM |  |  | 8.1 ± 2.1 µM | 7.7 ± 0.5 µM | 6.2 ± 0.6 µM | 6.1 ± 0.8 µM | CON=C1c2ccccc2-c2c(N3CCNCC3)nc3ccccc3c21 [Compound 6j, 6-(Piperazin-1-yl)-11H-indeno[1,2-c]quinolin-11-one O-methyl oxime]
 | 7.3 ± 0.4 µM |  | > 30 µM |  |  | 7.4 ± 1.2 µM | 5.6 ± 1.6 µM | > 30 µM | > 30 µM | COc1ccc2c(c1)C(=NO)c1c-2c(N2CCN(C(=O)CCNCCN(C)C)CC2)nc2ccccc12 [Compound 6n, 3-[2-(Dimethylamino)ethylamino]-1-{4-[11-(hydroxyimino)-9-methoxy-11H-indeno[1,2-c]quinolin-6-yl]piperazin-1-yl}propan-1-one]
7.5 ± 1.1 µM | 7 ± 0.5 µM | 5.3 ± 1.8 µM | 3 ± 2 µM | 3.6 ± 1.6 µM | 5 ± 0.8 µM |  |  |  |  | CON=C1c2cc(OC)ccc2-c2c(N3CCN(C(=O)CCN(C)C)CC3)nc3ccccc3c21 [Compound 6m]
5.2 ± 0.5 µM | 10.3 ± 0.5 µM | 8.3 ± 1.3 µM | 7.2 ± 3.1 µM | 10.6 ± 4.4 µM | 9.3 ± 2.9 µM |  |  |  |  | CON=C1c2cc(OC)ccc2-c2c(N3CCNCC3)nc3ccccc3c21 [Compound 6q]
 | 2.4 ± 1.3 µM |  | 2.9 ± 1.7 µM |  |  | 4.8 ± 1.3 µM | 2.6 ± 0.5 µM | 0.6 ± 0.2 µM | 0.7 ± 0.3 µM | COc1ccc2c(c1)C(=NOCCN1CCCC1)c1c-2c(N2CCNCC2)nc2ccccc12 [Compound 6u, 9-Methoxy-6-(piperazin-1-yl)-11H-indeno[1,2-c]quinolin-11-one O-2-(pyrrolidin-1-yl)ethyl oxime]
 | 6.1 ± 0.9 µM |  | 2.6 ± 0.9 µM |  |  | 1.7 ± 0.5 µM | 1.2 ± 0.9 µM | 2.7 ± 1.2 µM | 3.8 ± 1.3 µM | COc1ccc2c(c1)C(=NO)c1c-2c(N2CCNCC2)nc2ccccc12 [Compound 6p, 9-Methoxy-6-(piperazin-1-yl)-11H-indeno[1,2-c]quinolin-11-one oxime]
 | 1.2 ± 0.2 µM |  |  |  |  | > 30 µM | 5.7 ± 1 µM | 0.4 ± 0.02 µM | 1.5 ± 0.3 µM | COc1ccc2c(c1)C(=NOCCN1CCCC1)c1c-2cnc2ccccc12 [Compound 6aa, 9-methoxy-11H-indeno[1,2-c]quinolin-11-one O-2-(pyrrolidin-1-yl)ethyl oxime]
 | 0.8 ± 0.1 µM |  |  |  |  | 10.4 ± 3 µM | 3.7 ± 0.8 µM | 0.2 ± 0.02 µM | 1.2 ± 0.3 µM | COc1ccc2c(c1)C(=NOCCN1CCCC1)c1c-2c(O)nc2ccccc12 [Compound 6bb, 6-hydroxy-9-methoxy-11H-indeno[1,2-c]quinolin-11-one O-2-(pyrrolidin-1-yl)ethyl oxime]
